≈ marks a conversion by molar mass, not a printed value. Read-outs that look alike come from different tables or passages of the source. Bridge positions count the residues as written; N and C are the ends. Square brackets hold non-standard residues; d marks the D form. Peptide text beside a SMILES is read from it. * marks the point of attachment. ξ: configuration not given here. Thr(3ξ) = CC(O)[C@H](N)C(=O)O; X9 = CC(C)[C@H](N)CCC(=O)*; Octanoyl = CCCCCCCC(=O)*; Dab = NCC[C@H](N)C(=O)O; X15 = O=C(C1CCNC1)*; GABA = NCCCC(=O)O; βAla = NCCC(=O)O
How the values were obtained:
[1] = absence of a second agent, Table 6B

Compound	MIC, K. pneumoniae ATCC 4352 (K. pneumoniae; [1]) [micrograms/mL]	MIC, K. pneumoniae ATCC BAA-2146 (K. pneumoniae; [1]) [micrograms/mL]	MIC, P. aeruginosa ATCC 27853 (P. aeruginosa; [1]) [micrograms/mL]	MIC, P. aeruginosa CCUG 59347 (P. aeruginosa; [1]) [micrograms/mL]	MIC, A. baumannii ATCC BAA-747 (A. baumannii; [1]) [micrograms/mL]	MIC, A. baumannii NCTC 13424 (A. baumannii; [1]) [micrograms/mL]	MIC, E. coli ATCC 25922 (E. coli; [1]) [micrograms/mL]	MIC, E. coli NCTC 13441 (E. coli; [1]) [micrograms/mL]	MIC (A. baumannii) [µg/mL]	further results
(S)-4-amino-2- (benzyloxy)butan- oyl Polymyxin B nonapeptide [Example D54]	–	–	–	–	–	–	–	–	–	MIC, K. pneumoniae ATCC 4352 (K. pneumoniae; sole activity, Table 6C): 0.125 micrograms/mL; MIC, K. pneumoniae ATCC BAA-2146 (K. pneumoniae; sole activity, Table 6C): 0.25 micrograms/mL; MIC, P. aeruginosa ATCC 27853 (P. aeruginosa; sole activity, Table 6C): 0.5 micrograms/mL; MIC, P. aeruginosa CCUG 59347 (P. aeruginosa; sole activity, Table 6C): 1 micrograms/mL; MIC, A. baumannii ATCC BAA-747 (A. baumannii; sole activity, Table 6C): 1 micrograms/mL; MIC, A. baumannii NCTC 13424 (A. baumannii; sole activity, Table 6C): 4 micrograms/mL; MIC, E. coli ATCC 25922 (E. coli; sole activity, Table 6C): 0.25 micrograms/mL; MIC, E. coli NCTC 13441 (E. coli; sole activity, Table 6C): 0.5 micrograms/mL
(trans-5-(2- methylpropyl) piperidine)-3-carbonyl polymyxin B nonapeptide [Example D49]	4	8	2	4	>8	>8	8	8	–	–
6- isobutylpiperazine- 2-carbonyl L- Thr-L-Dap- polymyxin B heptapeptide [Example D80]	–	–	–	–	–	–	–	–	–	MIC, K. pneumoniae ATCC 4352 (K. pneumoniae; sole activity, Table 6C): 0.25 micrograms/mL; MIC, P. aeruginosa ATCC 27853 (P. aeruginosa; sole activity, Table 6C): 0.5 micrograms/mL; MIC, P. aeruginosa CCUG 59347 (P. aeruginosa; sole activity, Table 6C): 0.5 micrograms/mL; MIC, A. baumannii ATCC BAA-747 (A. baumannii; sole activity, Table 6C): 0.5 micrograms/mL; MIC, A. baumannii NCTC 13424 (A. baumannii; sole activity, Table 6C): 0.5 micrograms/mL; MIC, E. coli ATCC 25922 (E. coli; sole activity, Table 6C): 0.5 micrograms/mL
trans-4- Phenylpyrrolidine-3- carbonyl polymyxin B nonapeptide [Example D1]	2	1	0.5	2	4	4	4	4	–	–
5- (isobutylamino)pi- peridine-3- carbonyl Polymyxin B nonapeptide [Example D62]	–	–	–	–	–	–	–	–	–	MIC, K. pneumoniae ATCC 4352 (K. pneumoniae; sole activity, Table 6C): 0.5 micrograms/mL; MIC, K. pneumoniae ATCC BAA-2146 (K. pneumoniae; sole activity, Table 6C): 1 micrograms/mL; MIC, P. aeruginosa ATCC 27853 (P. aeruginosa; sole activity, Table 6C): 1 micrograms/mL; MIC, P. aeruginosa CCUG 59347 (P. aeruginosa; sole activity, Table 6C): 2 micrograms/mL; MIC, A. baumannii ATCC BAA-747 (A. baumannii; sole activity, Table 6C): 4 micrograms/mL; MIC, A. baumannii NCTC 13424 (A. baumannii; sole activity, Table 6C): 4 micrograms/mL; MIC, E. coli ATCC 25922 (E. coli; sole activity, Table 6C): 0.5 micrograms/mL; MIC, E. coli NCTC 13441 (E. coli; sole activity, Table 6C): 1 micrograms/mL
(S)-3-amino-2- (benzyloxy)propan- oyl Polymyxin B nonapeptide [Example D61]	–	–	–	–	–	–	–	–	–	MIC, K. pneumoniae ATCC 4352 (K. pneumoniae; sole activity, Table 6C): 0.25 micrograms/mL; MIC, K. pneumoniae ATCC BAA-2146 (K. pneumoniae; sole activity, Table 6C): 0.25 micrograms/mL; MIC, P. aeruginosa ATCC 27853 (P. aeruginosa; sole activity, Table 6C): 0.5 micrograms/mL; MIC, P. aeruginosa CCUG 59347 (P. aeruginosa; sole activity, Table 6C): 1 micrograms/mL; MIC, A. baumannii ATCC BAA-747 (A. baumannii; sole activity, Table 6C): 2 micrograms/mL; MIC, A. baumannii NCTC 13424 (A. baumannii; sole activity, Table 6C): 1 micrograms/mL; MIC, E. coli ATCC 25922 (E. coli; sole activity, Table 6C): 0.5 micrograms/mL; MIC, E. coli NCTC 13441 (E. coli; sole activity, Table 6C): 0.5 micrograms/mL
(cis-6-octylpiperidine)- 3-carbonyl polymyxin B nonapeptide [Example D17]	2	2	0.5	0.5	2	4	2	2	–	–
(S)-1-((6-oxo-1- phenyl-1,6- dihydropyridin-3- yl)methyl)piperazine- 2-carbonyl Polymyxin B nonapeptide [Example D60]	–	–	–	–	–	–	–	–	–	MIC, K. pneumoniae ATCC 4352 (K. pneumoniae; sole activity, Table 6C): 0.25 micrograms/mL; MIC, K. pneumoniae ATCC BAA-2146 (K. pneumoniae; sole activity, Table 6C): 0.5 micrograms/mL; MIC, P. aeruginosa ATCC 27853 (P. aeruginosa; sole activity, Table 6C): 1 micrograms/mL; MIC, P. aeruginosa CCUG 59347 (P. aeruginosa; sole activity, Table 6C): 2 micrograms/mL; MIC, A. baumannii ATCC BAA-747 (A. baumannii; sole activity, Table 6C): 4 micrograms/mL; MIC, A. baumannii NCTC 13424 (A. baumannii; sole activity, Table 6C): 2 micrograms/mL; MIC, E. coli ATCC 25922 (E. coli; sole activity, Table 6C): 0.25 micrograms/mL; MIC, E. coli NCTC 13441 (E. coli; sole activity, Table 6C): 0.5 micrograms/mL
CCCCCCCC(=O)N[C@@H](CCN)C(=O)N[C@H](C(=O)N[C@@H](CCN)C(=O)N[C@H]1CCNC(=O)[C@H]([C@@H](C)O)NC(=O)[C@H](CCN)NC(=O)[C@H](CCN)NC(=O)[C@H](CC(C)C)NC(=O)[C@@H](Cc2ccccc2)NC(=O)[C@H](CCN)NC1=O)C(C)O (stereo partly drawn) [CC4, Octanoyl polymyxin B decapeptide, reference compound] (Octanoyl-[Dab][Thr(3ξ)][Dab][Dab][Dab][dF]L[Dab][Dab]T; lactam 4-C)	–	–	–	–	–	–	–	–	1 (≈ 0.841 µM)	–
2-(2-aminoethyl)-4- methyl pentanoyl polymyxin B nonapeptide [Example D45]	0.5	2	1	4	8	4	0.5	2	–	–
2-aminomethyl-3- naphthalen-2-yl- propanoyl polymyxin B nonapeptide [Example D40]	2	4	0.5	1	>8	8	2	2	–	–
(trans-6- octylpiperidine)-3- carbonyl polymyxin B nonapeptide [Example D19]	2	4	0.5	1	2	–	2	2	–	–
CC(C)C[C@@H]1NC(=O)[C@@H](Cc2ccccc2)NC(=O)[C@H](CCN)NC(=O)[C@@H](NC(=O)[C@H](CCN)NC(=O)[C@@H](NC(=O)C2CCNC2)[C@@H](C)O)CCNC(=O)[C@H]([C@@H](C)O)NC(=O)[C@H](CCN)NC(=O)[C@H](CCN)NC1=O (stereo partly drawn) [Example B8, reference compound] (X15-T[Dab][Dab][Dab][dF]L[Dab][Dab]T; lactam 3-C)	–	–	–	–	–	–	–	–	–	MIC (E. coli): 4 µg/mL (≈ 3.77 µM)
2-(2-aminoethyl)-4- methyl pentanoyl polymyxin B nonapeptide [Example D46]	0.5	1	0.5	1	1	2	1	1	–	–
CC(C)C[C@@H]1NC(=O)[C@@H](Cc2ccccc2)NC(=O)[C@H](CCN)NC(=O)[C@@H](NC(=O)[C@H](CCN)NC(=O)[C@@H](NC(=O)CCCN)[C@@H](C)O)CCNC(=O)[C@H]([C@@H](C)O)NC(=O)[C@H](CCN)NC(=O)[C@H](CCN)NC1=O [Example B5, reference compound] (H-[GABA]T[Dab][Dab][Dab][dF]L[Dab][Dab]T; lactam 4-C)	–	–	–	–	–	–	–	–	4 (≈ 3.82 µM)	–
CCCCCCCC(=O)NCC(=O)N[C@H](C(=O)N[C@@H](CCN)C(=O)N[C@H]1CCNC(=O)[C@H]([C@@H](C)O)NC(=O)[C@H](CCN)NC(=O)[C@H](CCN)NC(=O)[C@H](CC(C)C)NC(=O)[C@@H](Cc2ccccc2)NC(=O)[C@H](CCN)NC1=O)C(C)O (stereo partly drawn) [CC5, Octanoyl-Gly- Polymyxin B nonapeptide, reference compound] (Octanoyl-G[Thr(3ξ)][Dab][Dab][Dab][dF]L[Dab][Dab]T; lactam 4-C)	–	–	–	–	–	–	–	–	>8	MIC (K. pneumoniae): 8 µg/mL (≈ 6.98 µM); MIC (E. coli): 8 µg/mL (≈ 6.98 µM)
CC(C)C[C@@H]1NC(=O)[C@@H](Cc2ccccc2)NC(=O)[C@H](CCN)NC(=O)[C@@H](NC(=O)[C@H](CCN)NC(=O)[C@@H](NC(=O)CCN)[C@@H](C)O)CCNC(=O)[C@H]([C@@H](C)O)NC(=O)[C@H](CCN)NC(=O)[C@H](CCN)NC1=O [Example B7, reference compound] (H-[βAla]T[Dab][Dab][Dab][dF]L[Dab][Dab]T; lactam 4-C)	–	–	–	–	–	–	–	–	>8	–
CCCCCCCC(=O)N[C@H](C(=O)N[C@@H](CCN)C(=O)N[C@H]1CCNC(=O)[C@H]([C@@H](C)O)NC(=O)[C@H](CCN)NC(=O)[C@H](CCN)NC(=O)[C@H](CC(C)C)NC(=O)[C@@H](Cc2ccccc2)NC(=O)[C@H](CCN)NC1=O)[C@@H](C)O [CC6, Octanoyl polymyxin B nonapeptide, reference compound] (Octanoyl-T[Dab][Dab][Dab][dF]L[Dab][Dab]T; lactam 3-C)	–	–	–	–	–	–	–	–	4 (≈ 3.67 µM)	MIC (E. coli): 0.5 µg/mL (≈ 0.459 µM)
CC(C)C[C@@H]1NC(=O)[C@@H](Cc2ccccc2)NC(=O)[C@H](CCN)NC(=O)[C@@H](NC(=O)[C@H](CCN)NC(=O)[C@@H](NC(=O)CC[C@@H](N)C(C)C)[C@@H](C)O)CCNC(=O)[C@H]([C@@H](C)O)NC(=O)[C@H](CCN)NC(=O)[C@H](CCN)NC1=O [Example B6, reference compound] (X9-T[Dab][Dab][Dab][dF]L[Dab][Dab]T; lactam 3-C)	–	–	–	–	–	–	–	–	>8	MIC (P. aeruginosa): 4 µg/mL (≈ 3.67 µM); MIC (E. coli): 8 µg/mL (≈ 7.34 µM)
